Reference: patent US11174268B2, “Benzenesulfonamide compouds and their use as therapeutic agents” (Xenon Pharmaceuticals Inc., priority 2016, dated 2021)
Structures can show the parent of a compound that is named as a salt.

Assays:
NaV1.1 = NaV1.1 (Homo sapiens (Human), UniProt P35498); assay: Sodium Influx Assay (Flux), NaV1.1; assay type: cell-based; conditions: Trex HEK293 cells, ANG2 dye, inactivated state;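 further: channels co-expressed with human β1 subunit and held open by modulators, cells exposed to compounds for one hour at room temperature, IC50 from percent inhibition of influx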
NaV1.6 = NaV1.6 (Homo sapiens (Human), UniProt Q9UQD0); assay: Sodium Influx Assay (Flux), NaV1.6; assay type: cell-based; conditions: Trex HEK293 cells, ANG2 dye, inactivated state;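 further: Tetracycline-induced cells, compounds applied for one hour at room temperature with modulators holding channels open, IC50 from percent inhibition of sodium influx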
NaV1.5 = NaV1.5 (Homo sapiens (Human), UniProt Q14524); assay: Sodium Influx Assay (Flux), NaV1.5; conditions: read-out: Flux NaV1.5 IC50; Trex HEK293 cells, ANG2 dye, inactivated state
Chain of NaV1.5 (Q14524 other isoform, or with tags, fused parts or gaps): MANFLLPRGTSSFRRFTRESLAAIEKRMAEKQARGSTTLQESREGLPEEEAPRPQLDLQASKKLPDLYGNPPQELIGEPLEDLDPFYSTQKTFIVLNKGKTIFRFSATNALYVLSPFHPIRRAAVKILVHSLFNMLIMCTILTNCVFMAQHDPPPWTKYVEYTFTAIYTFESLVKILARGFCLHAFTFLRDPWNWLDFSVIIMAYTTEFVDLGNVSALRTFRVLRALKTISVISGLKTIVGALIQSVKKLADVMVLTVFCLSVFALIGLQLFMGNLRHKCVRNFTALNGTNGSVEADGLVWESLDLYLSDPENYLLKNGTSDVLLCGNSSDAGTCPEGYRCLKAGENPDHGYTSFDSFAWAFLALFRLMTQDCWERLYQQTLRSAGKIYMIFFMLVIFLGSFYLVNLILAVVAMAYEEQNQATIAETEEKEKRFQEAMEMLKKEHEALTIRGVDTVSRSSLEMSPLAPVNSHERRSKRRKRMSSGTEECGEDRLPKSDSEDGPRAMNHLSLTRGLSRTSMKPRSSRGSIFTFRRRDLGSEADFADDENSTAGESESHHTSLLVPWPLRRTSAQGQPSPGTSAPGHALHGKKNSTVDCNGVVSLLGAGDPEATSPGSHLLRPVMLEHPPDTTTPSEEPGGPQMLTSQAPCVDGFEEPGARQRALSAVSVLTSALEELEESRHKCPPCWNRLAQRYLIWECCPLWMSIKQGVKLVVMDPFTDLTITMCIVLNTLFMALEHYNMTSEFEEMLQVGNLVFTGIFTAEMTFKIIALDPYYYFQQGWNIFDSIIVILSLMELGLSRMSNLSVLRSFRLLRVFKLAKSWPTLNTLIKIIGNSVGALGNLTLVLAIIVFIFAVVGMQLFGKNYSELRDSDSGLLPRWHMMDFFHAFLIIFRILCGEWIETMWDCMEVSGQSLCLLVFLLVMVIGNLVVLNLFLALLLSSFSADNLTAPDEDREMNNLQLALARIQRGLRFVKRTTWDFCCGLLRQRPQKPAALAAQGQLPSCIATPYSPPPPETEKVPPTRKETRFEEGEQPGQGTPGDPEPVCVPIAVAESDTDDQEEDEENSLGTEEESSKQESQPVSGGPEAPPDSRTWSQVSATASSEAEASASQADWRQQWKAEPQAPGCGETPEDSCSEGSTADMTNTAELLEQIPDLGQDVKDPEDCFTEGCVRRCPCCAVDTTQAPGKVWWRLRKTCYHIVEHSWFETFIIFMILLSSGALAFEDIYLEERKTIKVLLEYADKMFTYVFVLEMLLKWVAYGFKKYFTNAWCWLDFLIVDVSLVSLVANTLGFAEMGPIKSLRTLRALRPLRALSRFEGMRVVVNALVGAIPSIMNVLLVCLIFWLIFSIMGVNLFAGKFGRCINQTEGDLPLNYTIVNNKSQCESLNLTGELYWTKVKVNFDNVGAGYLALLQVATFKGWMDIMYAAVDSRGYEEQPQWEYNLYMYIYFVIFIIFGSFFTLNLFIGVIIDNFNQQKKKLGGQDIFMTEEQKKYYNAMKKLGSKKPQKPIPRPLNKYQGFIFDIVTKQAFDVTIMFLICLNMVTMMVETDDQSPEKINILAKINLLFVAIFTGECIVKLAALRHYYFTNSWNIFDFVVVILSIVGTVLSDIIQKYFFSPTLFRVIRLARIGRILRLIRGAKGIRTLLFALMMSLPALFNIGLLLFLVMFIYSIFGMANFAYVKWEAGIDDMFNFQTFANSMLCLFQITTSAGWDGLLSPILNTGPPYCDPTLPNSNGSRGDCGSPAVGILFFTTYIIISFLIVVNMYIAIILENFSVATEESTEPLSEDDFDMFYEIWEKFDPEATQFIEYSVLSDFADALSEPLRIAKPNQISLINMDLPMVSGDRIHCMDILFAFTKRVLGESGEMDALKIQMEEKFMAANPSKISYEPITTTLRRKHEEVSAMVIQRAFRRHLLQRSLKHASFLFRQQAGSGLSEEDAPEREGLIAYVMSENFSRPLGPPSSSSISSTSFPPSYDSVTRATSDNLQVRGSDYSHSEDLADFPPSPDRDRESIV

SMILES | IC50 (NaV1.1) [µM] | IC50 (NaV1.6) [nM] | IC50 (NaV1.5) [µM]
CC[C@H](Nc1cc(F)c(S(=O)(=O)Nc2ccncn2)c(F)c1)c1cc(F)ccc1Cl [Example 276, (S)-4-((1-(2-chloro-5-fluorophenyl)propyl)amino)-2,6-difluoro-N-(pyrimidin-4-yl)benzenesulfonamide] | 3.6 | 265 | 24.3
C[C@@H](c1cccc(F)c1CNc1cc(F)c(S(=O)(=O)Nc2cscn2)c(F)c1)N1CCC1 [Example 278, (S)-4-((2-(1-(azetidin-1-yl)ethyl)-6-fluorobenzyl)amino)-2,6-difluoro-N-(thiazol-4-yl)benzenesulfonamide formate] | 14.2 | 187 | 30
C[C@H](c1cccc(F)c1CNc1cc(F)c(S(=O)(=O)Nc2cscn2)c(F)c1)N1CCC1 [Example 279, (R)-4-((2-(1-(azetidin-1-yl)ethyl)-6-fluorobenzyl)amino)-2,6-difluoro-N-(thiazol-4-yl)benzenesulfonamide formate] | 11.2 | 163 | 30
COCc1ccc(F)c([C@H](C)Nc2cc(F)c(S(=O)(=O)Nc3cscn3)cc2Cl)c1 [Example 280, (S)-5-chloro-2-fluoro-4-((1-(2-fluoro-5-(methoxymethyl)phenyl)ethyl)amino)-N-(thiazol-4-yl)benzenesulfonamide] | 8.73 | 1390 | 23.9
C[C@H](Nc1cc(F)c(S(=O)(=O)Nc2cscn2)cc1Cl)c1cc(OC(F)F)ccc1F [Example 281, (S)-5-chloro-4-((1-(5-(difluoromethoxy)-2-fluorophenyl)ethyl)amino)-2-fluoro-N-(thiazol-4-yl)benzenesulfonamide] | 7.06 | 1080 | 11
O=S(=O)(Nc1cscn1)c1cc(Cl)c(NCc2c(F)ccc(F)c2CN2CC3(CCOCC3)C2)cc1F [Example 282, 4-((2-((7-oxa-2-azaspiro[3.5]nonan-2-yl)methyl)-3,6-difluorobenzyl)amino)-5-chloro-2-fluoro-N-(thiazol-4-yl)benzenesulfonamide 2,2,2-trifluoroacetate] | 9.78 | 409 | 6.58
CN(Cc1c(F)ccc(F)c1CN1CCC1)c1cc(F)c(S(=O)(=O)Nc2cscn2)c(F)c1 [Example 284, 4-((2-(azetidin-1-ylmethyl)-3,6-difluorobenzyl)(methyl)amino)-2,6-difluoro-N-(thiazol-4-yl)benzenesulfonamide 2,2,2-trifluoroacetate] | 30 | 1370 | 30
C[C@H](Nc1cc(F)c(S(=O)(=O)Nc2cscn2)cc1Cl)c1cc(F)c(F)cc1F [Example 286, (S)-5-chloro-2-fluoro-N-(thiazol-4-yl)-4-((1-(2,4,5-trifluorophenyl)ethyl)amino)benzenesulfonamide] | 6.84 | 3380 | 8.78
O=S(=O)(Nc1cscn1)c1c(F)cc(N[C@@H]2C[C@H](N3CCC3)c3ccccc32)cc1F [Example 289, 4-(((1R,3S)-3-(azetidin-1-yl)-2,3-dihydro-1H-inden-1-yl)amino)-2,6-difluoro-N-(thiazol-4-yl)benzenesulfonamide] | 4.27 | 556 | 30
O=S(=O)(Nc1cscn1)c1cc(Cl)c(NCc2c(Cl)cccc2CN2CC3(CNC3)C2)cc1F [Example 291, 4-((2-((2,6-diazaspiro[3.3]heptan-2-yl)methyl)-6-chlorobenzyl)amino)-5-chloro-2-fluoro-N-(thiazol-4-yl)benzenesulfonamide 2,2,2-trifluoroacetate] | 14 | 368 | 30
CN1CC2(C1)CN(Cc1cccc(Cl)c1CNc1cc(F)c(S(=O)(=O)Nc3cscn3)cc1Cl)C2 [Example 292, 5-chloro-4-((2-chloro-6-((6-methyl-2,6-diazaspiro[3.3]heptan-2-yl)methyl)benzyl)amino)-2-fluoro-N-(thiazol-4-yl)benzenesulfonamide 2,2,2-trifluoroacetate] | 2.72 | 624 | 8.4
O=S(=O)(Nc1ccon1)c1ccc(NCc2c(F)cccc2CN2CCCC2)c(F)c1F [Example 294, 2,3-difluoro-4-((2-fluoro-6-(pyrrolidin-1-ylmethyl)benzyl)amino)-N-(isoxazol-3-yl)benzenesulfonamide 2,2,2-trifluoroacetate] | 30 | 688 | 30
O=S(=O)(Nc1ccc(F)cn1)c1c(F)cc(NCc2c(F)cccc2CN2CCC2)cc1F [Example 296, 4-((2-(azetidin-1-ylmethyl)-6-fluorobenzyl)amino)-2,6-difluoro-N-(5-fluoropyridin-2-yl)benzenesulfonamide formate] | 16.9 | 1310 | 30
O=S(=O)(Nc1cscn1)c1cc(Cl)c(NCc2c(F)ccc3cc[nH]c23)cc1F [Example 298, 5-chloro-2-fluoro-4-(((6-fluoro-1H-indol-7-yl)methyl)amino)-N-(thiazol-4-yl)benzenesulfonamide] | 7.19 | 785 | 11.3
C[C@@H](O)c1cccc(F)c1CNc1cc(F)c(S(=O)(=O)Nc2cscn2)c(F)c1 [Example 299, (R)-2,6-difluoro-4-((2-fluoro-6-(1-hydroxyethyl)benzyl)amino)-N-(thiazol-4-yl)benzenesulfonamide] | 0.684 | 3610 | 21.6
O=S(=O)(Nc1ccon1)c1cc(Cl)c(NCc2c(F)cccc2CN2CCC2)cc1F [Example 301, 4-((2-(azetidin-1-ylmethyl)-6-fluorobenzyl)amino)-5-chloro-2-fluoro-N-(isoxazol-3-yl)benzenesulfonamide formate] | 30 | 493 | 30
O=S(=O)(Nc1cscn1)c1c(F)cc(NCc2c(Cl)ccc(F)c2CN2CCC2)cc1F [Example 309, 4-((2-(azetidin-1-ylmethyl)-6-chloro-3-fluorobenzyl)amino)-2,6-difluoro-N-(thiazol-4-yl)benzenesulfonamide 2,2,2-trifluoroacetate] | 6.34 | 85 | 27.6

Now from value to compound, other results behind:

IC50 (NaV1.1) [µM] | IC50 (NaV1.6) [nM] | SMILES | IC50 (NaV1.5) [µM]
30 | 448 | CN(C)Cc1ccccc1CNc1cc(F)c(S(=O)(=O)Nc2cscn2)c(F)c1 [Example 271, 4-((2-((dimethylamino)methyl)benzyl)amino)-2,6-difluoro-N-(thiazol-4-yl)benzenesulfonamide] | 30
5.89 | 625 | Cc1cccc(CN2CCC2)c1CNc1cc(F)c(S(=O)(=O)Nc2cscn2)c(F)c1 [Example 285, 4-((2-(Azetidin-1-ylmethyl)-6-methylbenzyl)amino)-2,6-difluoro-N-(thiazol-4-yl)benzenesulfonamide formate] | 26.6
9.67 | 49 | O=S(=O)(Nc1cscn1)c1c(F)cc(NCc2c(F)cccc2CN2CCC2)cc1F [Example 302, 4-((2-(azetidin-1-ylmethyl)-6-fluorobenzyl)amino)-2,6-difluoro-N-(thiazol-4-yl)benzenesulfonamide 2,2,2-trifluoroacetate] | 23.9
5.73 | 7 | O=S(=O)(Nc1cscn1)c1c(F)cc(NCc2c(F)cccc2CN2CCC2)c(Cl)c1F [Example 303, 4-((2-(azetidin-1-ylmethyl)-6-fluorobenzyl)amino)-3-chloro-2,6-difluoro-N-(thiazol-4-yl)benzenesulfonamide 2,2,2-trifluoroacetate] | 24.5
14.2 | 57 | Cc1c(NCc2ccccc2CN2CCC2(C)C)cc(F)c(S(=O)(=O)Nc2cscn2)c1F [Example 305, 4-((2-((2,2-dimethylazetidin-1-yl)methyl)benzyl)amino)-2,6-difluoro-3-methyl-N-(thiazol-4-yl)benzenesulfonamide 2,2,2-trifluoroacetate] | 30
18.1 | 241 | Cc1c(NCc2c(F)cccc2CN2CCC2(C)C)ccc(S(=O)(=O)Nc2cscn2)c1F [Example 306, 4-((2-((2,2-dimethylazetidin-1-yl)methyl)-6-fluorobenzyl)amino)-2-fluoro-3-methyl-N-(thiazol-4-yl)benzenesulfonamide] | 8.1
26 | 605 | O=S(=O)(Nc1cscn1)c1cc(F)c(NCc2c(F)cccc2CN2CCC2)cc1F [Example 308, 4-((2-(azetidin-1-ylmethyl)-6-fluorobenzyl)amino)-2,5-difluoro-N-(thiazol-4-yl)benzenesulfonamide] | 26.4
26.4 | 219 | O=S(=O)(Nc1ccncn1)c1c(F)cc(NCc2ccccc2CN2CCC2)cc1F [Example 311, 4-((2-(azetidin-1-ylmethyl)benzyl)amino)-2,6-difluoro-N-(pyrimidin-4-yl)benzenesulfonamide formate] | 30
7.26 | 135 | Cc1cc(NCc2ccccc2CN2CCC2)c(F)c(F)c1S(=O)(=O)Nc1cscn1 [Example 312, 4-((2-(azetidin-1-ylmethyl)benzyl)amino)-2,3-difluoro-6-methyl-N-(thiazol-4-yl)benzenesulfonamide 2,2,2-trifluoroacetate] | 9.59
3.75 | 14 | Cc1c(NCc2c(Cl)ccc(F)c2CN2CCC2)cc(F)c(S(=O)(=O)Nc2cscn2)c1F [Example 313, 4-((2-(azetidin-1-ylmethyl)-6-chloro-3-fluorobenzyl)amino)-2,6-difluoro-3-methyl-N-(thiazol-4-yl)benzenesulfonamide 2,2,2-trifluoroacetate] | 14.3
